Results on six molecules are retold here after patent publication US20220136033A1, “Kits and Assays for Determining Bacterial Cell Viability” (priority 2020, published 2022).

Values joined by “and” are separate entries in the source; they are usually repeats but may differ in a detail not shown here. Identical values can stand only once. Counter-ions that a name gives are not always drawn. Where only a bound is given, the exact number is not on record here.

Data set [1] can be described thus: Excitation and emission spectra comparison. The class given is physicochemical. To be noted: approx. The source says: FIG. 11. The excitation and emission spectra for erythrosin B and propidium iodide, another cell viability dye that works by membrane exclusion, were compared. Erythrosin B has a narrow range for both excitation (approx. 480-550 nm) and emission (approx. 540-610 nm) compared to propidium iodide (excitation of approx. 300-350 nm and 475-575 nnm; emission of approx. 570-750 nm).
Many experiments involving fluorescent molecules, including viability assays, try to multiplex (use more than one fluorescent molecule at a time (e.g., FIG. 12)). A key limitation to the number of different fluorescent molecules that can be simultaneously used is the width of the region(s) of wavelengths for excitation and for emission. By having narrow ranges for both excitation and emission this allows erythrosin B to be more flexible than propidium iodide and potentially be paired with a wider variety of other fluorescent probes.

Data set [2] in a line: Concentration of filtered EB stock solution by A530 reference. Format: physicochemical. To be noted: 0.1% (w/v) preparation in 10 mM Tris pH 7.5, undissolved dye removed by 0.22 μm filter. The procedure: Erythrosin B (EB, Sigma, Mo., USA 200964-5G) was prepared by dissolving powder in 10 mM Tris pH 7.5. Published values of the solubility of EB in aqueous solutions vary and may result from different preparations of the dye and from which supplier it is purchased. A small amount of undissolved dye was present when preparing a 0.1% (w/v) solution. This stock solution was filtered through a 0.22 μm filter to remove undissolved dye. To determine the concentration of this stock solution a fresh, dilute EB solution was prepared in which all dye fully dissolved after 10 minutes of stirring. This dilute solution was serially diluted and A530 readings (the wavelength of maximal absorbance for EB) were collected generating a reference relating EB dye concentration to A530. The filtered, stock solution of EB was then serially diluted, and absorbance values of the dilutions were compared to the reference absorbance values for the dilute solution. The stock EB concentration was determined to be 0.08% and is used throughout this work.

Data set [3] deals with Gram-negative and Gram-positive bacteria. As to the kind of experiment: Bright-field microscopy viability staining with erythrosin B. The class given is cell-based. The procedure: Growth and treatments of bacteria. To prepare cells for viability studies, 3 mL overnight bacterial cultures were grown in Luria Broth. Fresh 5 mL cultures were inoculated from the overnight cultures and grown for 1 to 4 hours until reaching an OD600 of 0.4-1.1. Cells were harvested by centrifugation (15,000 g for 4 minutes) and then resuspended in phosphate buffered saline (PBS). A portion of these cells were kept at room temperature (untreated controls), while the remainder were transferred into separate microfuge tubes for different treatments. For heat shock treatment, microfuge tubes were placed at 70° C. for 30 minutes before returning to room temperature. For ethanol treatment, 100% ethanol (Decon Labs, Inc., PA, USA product number 2716) was added to cell suspensions to a final concentration of 30%. Cell mixtures were incubated at 37° C. for 30 minutes, centrifuged, and then the pellet was resuspended in PBS. For CaCl2 treatment, cells were centrifuged, and the pellet was resuspended in 1 mL of ice-cold 100 mM CaCl2 and left on ice for 45 minutes. After this initial incubation, the cells were centrifuged and resuspended in 1004 of 100 mM CaCl2.
Assaying bacterial viability. For bright-field microscopy assays, 104 of each cell suspension (untreated, heat-shocked, ethanol-treated and CaCl2-treated) was mixed with 104 of 0.08% erythrosin B and incubated for 5 minutes at room temperature. For CaCl2-treated cells, mixtures were placed at 42° C. for 60 seconds before returning to room temperature for the remainder of the incubation. 5 μl of the incubated dye:cell mixtures were taken to prepare wet mounts. Imaging was performed on a […] Olympus BX61 microscope using an UPlanSApo 100X/1.14 NA oil objective lens with an Olympus SC10 camera.

Another data set relates to bacteria. As to the kind of experiment: Chemical treatments mildly affecting membrane permeability, EB staining. Format: cell-based. To be noted: 20 mM EDTA, 0.1-0.5% Triton X100, 0.12 M guanidine HCl or 0.1% SDS. The source says:
All cell viability assays have limitations. The CFU method can overestimate the proportion of dead cells because any viable cells that are unable to divide, or dividing more slowly than wild-type, fail to form visible colonies and will be scored as dead. Membrane exclusion dyes, such as EB and propidium iodine, can underestimate the proportion of dead cells as recently dead cells may not have sufficiently compromised membranes to allow the dye to enter the cell. […] How other viability methods score dying cells also varies and it is often difficult to accurately quantitate, or distinguish, a dying cell population (4). For membrane-exclusion dyes, the concern is whether the dye enters cells with mildly compromised membranes that may be dying, but not dead.

Data set [4] concerns Staphylococcus epidermidis. Description: Flow cytometry viability comparison, propidium iodide vs EB-based kit. Format: cell-based. The procedure:
(§1) Determining bacterial cell viability by a different membrane exclusion dye (propidium iodide, PI) is not reliable for certain bacteria species and under certain growth conditions (10,11). Using an EB dye and adsorbent resin binding step (hereafter referred to as EB-based Kit), it is possible to reliably determine cell viability in these bacteria species (FIG. 9A-L). In these experiments, overnight cultures of Streptococcus mutans (FIG. 9A-F) and Staphylococcus epidermidis (FIG. 9G-L) were grown in Luria Broth. A portion of each culture was killed by treating with ethanol (50% ethanol, for 30 minutes at 30° C.). Overnight cells and ethanol-treated cells were centrifuged (10,000 g for 6 minutes) and then resuspended in phosphate buffered saline. Both cell suspensions were then sonicated to break apart any clusters (10% for 10 seconds). An approximately equal amount of the untreated, living overnight cells and the ethanol-treated, killed cells were mixed to generate a mixed population sample. 100 microliters of each sample (overnight culture, live/dead mixture, and killed cells) were incubated with 100 microliters of an EB-dye solution for 5 minutes. After incubation, 100 microliters of the adsorbent solution was added and gently agitated for 5 minutes on a vortexer. Following agitation, the tubes were left for 5 minutes to allow the adsorbent to settle and 200 microliters of the liquid solution above the adsorbent was transferred to a new tube. These samples were brought up to 1 mL in phosphate buffered saline. For propidium iodide staining, 40 microliters of the sonicated samples (overnight culture, live/dead mixture, and killed cells) were transferred to a fresh tube and brought up to 1 mL in phosphate buffered saline. 1 microliter of propidium iodide was added to each tube and incubated for 15 minutes before analyzing all samples by flow cytometry (FIGS. 9A-F for Streptococcus mutans and FIGS. 9G-L for Staphylococcus epidermidis).
For orientation: Flow cytometry measures light scatter and fluorescence of single cells or particles in a stream.

The subject of a further data set is Streptococcus mutans. The data set is described as above. The class given is cell-based. To be noted: >90% alive by CFU, 30,000 events. The procedure: as §1

For `O.O=C([O-])c1ccccc1-c1c2cc(I)c(=O)c(I)c-2oc2c(I)c([O-])c(I)cc12.[Na+].[Na+]` [EB, Erythrosin B], in data set [1], the emission range was 540-610 nm and the excitation range was 480-550 nm. Moreover, in data set [2], the “stock EB concentration” value came out at 0.08%. Also, in data set [3] (CaCl2-treated cells), the “dye-positive cells after CaCl2 treatment” value is listed as “not all treated cells were dye positive”. Moreover, the “time until clear differences between dye-negative and dye-positive cells were visible” value in data set [3] (dye incubation, bright-field) is at most 5 min. In addition, in data set [3] (heat shocked and ethanol-treated organisms), the “dye-positive cells after heat shock or ethanol treatment” value was “virtually all treated cells were dye-positive”. In data set [3] (untreated cells, all species examined), the “healthy cells dye-positive by bright-field microscopy when incubated with EB” value was under 3%.
For `O=C(O)CN(CCN(CC(=O)O)CC(=O)O)CC(=O)O` [EDTA], in the data set with bacteria, the “increase in dye-positive live cells after chemical treatment” value (from here on “increase in dye-positive live cells”) is recorded as “did not result in an observable increase in dye-positive live cells”.
As for `CC[N+](C)(CC)CCC[n+]1c(-c2ccccc2)c2cc(N)ccc2c2ccc(N)cc21.[I-].[I-]` [PI, propidium iodide], in data set [1], the emission range is 570-750 nm; the excitation range is 300-350 nm and 475-575 nm. Also, in data set [4] (near-equal mixture of live and ethanol-killed cells), the “cells dead, Live/Dead Mixture sample” value was found to be 95%. Further, in data set [4] (overnight culture, >90% alive by CFU, 30,000 events), the “cells dye-positive (dead), overnight culture” value is about 61%. For the same molecule, the “cells dye-positive (dead), overnight culture” value in the data set with Streptococcus mutans is given as “virtually all cells”.
As for `CCCCCCCCCCCCOS(=O)(=O)[O-].[Na+]` [SDS], in the data set with bacteria, the “increase in dye-positive live cells” value is listed as “did not result in an observable increase in dye-positive live cells”.
In the case of `N=C(N)N` [guanidine HCl], the “increase in dye-positive live cells” value in the data set on bacteria is recorded as “did not result in an observable increase in dye-positive live cells”.
Take Triton X100: in the data set on bacteria, the “increase in dye-positive live cells” value is listed as “did not result in an observable increase in dye-positive live cells”.
